Source: patent publication US20190183939A1, “CELL THERAPY USING MIDBRAIN-TYPE NEURAL STEM CELLS TREATED WITH VITAMIN C” (INDUSTRY-UNIVERSITY COOPERATION FOUNDATION HANYANG …, priority 2017, published 2019)

Tested on: human NSCs derived from hESCs (H9)
Assay: VC treatment in human NSC cultures derived from hESCs (H9)
Format: cell-based
Protocol: NSCs were cultured from rat embryo VMs (Sprague Dawley) at embryonic day 12 (E12) on 6-cm dishes or 24-well plates pre-coated with 15 μg/ml poly-L-ornithine (PLO; Sigma)/1 ug/ml fibronectin (FN; Sigma, St. Louis, Mo.) in serum-free N2 medium. NSCs were induced to proliferate by the mitogenic action of basic fibroblast growth factor (bFGF, 20 ng/ml, R&D Systems, Minneapolis, Minn.). The proliferating VM-NSCs cultured in 6-cm dishes were passaged at every 4th day in mitogen-supplemented medium with or without Vitamin C (VC; Sigma; 200 μM), glutathione reduced form (GSH; Sigma; 200 μM), vitamin E (alpha-tocopherol; Sigma; 200 μM), or N-acetylcysteine (NAc; Sigma; 100 μM). The expanded NSCs at the last day of each passage were induced to differentiate by withdrawing the mitogen and antioxidants from the media (for 2-16 days). Human NSC cultures were derived by in vitro differentiation of hESCs (H9) and cultured as described in the following reference. [Rhee, Y. H., Ko, J. Y., Chang, M. Y., Yi, S. H., Kim, D., Kim, C. […] The human NSCs were expanded in ITS media supplemented with bFGF (20 ng/ml) in the presence or absence of VC for two NSC passages. Differentiation of the passaged human NSCs was induced by withdrawal of bFGF and VC in ITS supplemented with brain-derived neurotrophic factor (20 ng/ml; R&D Systems), glial cell line derived neurotrophic factor (20 ng/ml; R&D Systems), and dibutyryl cAMP (0.5 mmol/1; Sigma). Cultures were maintained at 37° C. in humidified 5% CO2 incubators.
The cell growth profile during NSC expansion with several cell passages was generated by counting the number of viable cells at the end of each passage. Cell expansion of each NSC passage was further estimated by the population doubling level (PDL, the level at which the number of cells is doubled), which was determined by log(N/NO)/log 2 (where N is the number of cells at the end of each passage; NO is the number of cells plated initially (1×10^5 cells/cm^2)). DA neuronal cell survival in the absence or presence of toxic insults (500-1000 uM of H2O2 or 6-OHDA) was determined by counting viable TH^+ cells after staining. General cell death and DNA damage were estimated by ethidium heterodimer 1 (EthD1) (Molecular Probes) and γH2AX staining, respectively.
To estimate morphological maturation, total fiber lengths emanating from TH+DA neuronal cells were measured. The pre-synaptic activity of DA neurons was determined by measuring the levels of DA neurotransmitter released in the differentiated VM-NSC cultures. Media incubated for 2 days (differentiation day 13-15) were collected and used in the DA level determinations using an ELISA kit (BA E-5300, LDN). […] The evoked DA release was calculated by subtracting the DA release without KCl from the DA level with KCl.

## O=C1O[C@H]([C@@H](O)CO)C(O)=C1O [VC, L-ascorbic acid]
VC-treated human NSCs, D6
  TH+ DA neuronal yields: significantly enhanced
Compared to untreated control cultures, D15
  neurite branching of TH+ cells: more extensive neurite branching
hESC-NSC cultures, VC during proliferation, D6
  differentiating/differentiated cell survival: greatly promoted
qRT-PCR
  TH mRNA expression: increase
